Tests used:
Type in all cases: physicochemical
[1] = Examination of optimal formulation: re-solubility after storage; conditions: lyophilized, Polysorbate 20 0.5%
Experimental: (§1) First, Polysorbate 20 was dissolved in distilled water in a concentration of 0.5%, and sucrose and histidine or sodium deoxycholate in such concentrations listed on Table 11. Next, 20 mg of the active component (KRN7000) was weighed and stirred in 100 ml of the solvents in a heated bath to 80° C. for 20 minutes in order to form a solution. After cooling with running water, the mixture was filtered through a 0.22 μm filter, and transparent colorless glass vials having a volume of 5 ml were charged with a 1 ml portion of each of a variety of solutions thus obtained and subjected to lyophilization. Lyophilization was carried out under the condition of preliminary freezing at −40° C. for 2 hours and drying at −20° C. for 24 hours, 10° C. for 12 hours, and finally at 25° C. for 5 hours to give the lyophilized product. The degree of vacuum was set at 0.1 Torr or less during drying step.
After the lyophilization step, the lyophilized composition thus obtained was stored at 25° C. or 50° C. After storage at 25° C. for 2 months or at 50° C. for 2 weeks, the lyophilized composition was reconstituted in 1 ml of distilled water for injection, left standing for 30 minutes, and solubility was judged when the foams generated on reconstitution disappeared. The samples judged to be solution after storage at 25° C. for 2 months were further stored, and judged again of their solubility after storage for 4 months.
(§2) The solubility was judged by cleaning the outside of the vial and placing it beneath the white light source in a darkroom for observation with naked eye at the position of a luminous intensity of about 5,000 lux. When the sample was clear with no precipitates, it was judged that the active component was dissolved.

[2] = Additives for improving re-solubility during storage, sucrose as excipient; conditions: lyophilized, Polysorbate 20 0.5%, Sucrose 9.6%
Experimental: as §1, with “and a variety of additives” for “and histidine or sodium deoxycholate in”, “concentrations as” for “concentrations”, “listed in” for “listed on”, “Table 9.” for “Table 11.”
After the lyophilization step, the lyophilized composition thus obtained was stored at 25° C. or 50° C. , or at both of these temperatures. After storage at 25° C. for 1 month or at 50° C. for 3 days, the lyophilized composition was reconstituted in 1 ml of distilled water for injection, left standing for 30 minutes, and solubility was judged when the foams generated on reconstitution disappeared. The samples judged in solution were further stored, and judged again of their solubility after storage at 25° C. for 4 months or at 50° C. for 2 weeks.
as §2

[3] = Cooling condition after dissolution with heating 1: turbidity (absorbance 660 nm, kaolin standard); conditions: Polysorbate 20 0.5%, histidine 0.75%, sucrose 5.6%; cooling 73° C. → 30° C., 23 minutes; reconstituted in 1 ml distilled water
Experimental: First, Polysorbate 20 was dissolved in distilled water in a concentration of 0.5%, histidine in a concentration of 0.75%, and sucrose in a concentration of 5.6%. Next, 800 mg of the active component (KRN7000) was weighed and stirred in 4 liters of the solvent under heating at 73° C. for 30 minutes in order to form a solution. After dissolution, the mixture was divided into about 500 ml portions, cooled with stirring from 73° C. to 30° C. (6 minutes), from 73° C. to 30° C. (23 minutes), and from 73° C. to 30° C. (120 minutes). […]
The turbidity of the solutions prepared respective cooling conditions before or after the filtration step, and the lyophilized composition thus obtained which were reconstituted after leaving standing at room temperature (25° C. ) for 3 hours from the lyophilization step, were measured. In this connection, the lyophilized composition was reconstituted in 1 ml of distilled water for injection, left standing for 30 minutes, and turbidity was measured when the foams generated on reconstitution disappeared.
The turbidity was measured by the following method: various dilutions including 50-fold dilution (kaolin 2 μg/ml, turbidity 2.00), 100-fold dilution (kaolin 1 μg/ml, turbidity 1.00), and 200-fold dilution (kaolin 0.5 μg/ml, turbidity 0.50) were prepared by diluting the turbidity standard (kaolin, 0.1 mg/ml) with distilled water. […]

CCCCCCCCCCCCCCCCCCCCCCCCCC(=O)N[C@@H](CO[C@H]1O[C@H](CO)[C@H](O)[C@H](O)[C@H]1O)[C@H](O)[C@H](O)CCCCCCCCCCCCCC [KRN7000, (2S,3S,4R)-1-(α-D-galactopyranosyloxy)-2-hexacosanoylamino-3,4-octadecanediol]
0.36: Turbidity Lyophilized composition [3]
− (dissolved): Re-solubility after storage (by naked eye) ([1]; Sucrose 3.1%, Histidine, 3%, 50° C., 2 weeks) | Re-solubility after storage (by naked eye) ([1]; Sucrose 3.2%, Histidine, 2%, 50° C., 2 weeks) | Re-solubility after storage (by naked eye) ([1]; Sucrose 4.8%, Sodium deoxycholate, 0.5%, 25° C., 2 months) | Re-solubility after storage (by naked eye) ([1]; Sucrose 4.8%, Sodium deoxycholate, 0.5%, 25° C., 4 months) | Re-solubility after storage (by naked eye) ([1]; Sucrose 4.8%, Sodium deoxycholate, 1%, 25° C., 2 months) | Re-solubility after storage (by naked eye) ([1]; Sucrose 4.8%, Sodium deoxycholate, 1%, 25° C., 4 months) | Re-solubility after storage (by naked eye) ([1]; Sucrose 4.8%, Sodium deoxycholate, 2%, 25° C., 2 months) | Re-solubility after storage (by naked eye) ([1]; Sucrose 4.8%, Sodium deoxycholate, 2%, 25° C., 4 months) | Re-solubility after storage (by naked eye) ([1]; Sucrose 5.0%, Histidine, 2%, 50° C., 2 weeks) | Re-solubility after storage (by naked eye) ([1]; Sucrose 5.1%, Histidine, 1%, 50° C., 2 weeks) | Re-solubility after storage (by naked eye) ([1]; Sucrose 6.9%, Histidine, 1%, 50° C., 2 weeks) | Re-solubility after storage (by naked eye) ([1]; Sucrose 9.6%, Histidine, 2%, 50° C., 2 weeks) | Re-solubility after storage (by naked eye) ([1]; Sucrose 9.6%, Sodium deoxycholate, 0.5%, 25° C., 2 months) | Re-solubility after storage (by naked eye) ([1]; Sucrose 9.6%, Sodium deoxycholate, 0.5%, 25° C., 4 months) | Re-solubility after storage (by naked eye) ([1]; Sucrose 9.6%, Sodium deoxycholate, 1%, 25° C., 2 months) | Re-solubility after storage (by naked eye) ([1]; Sucrose 9.6%, Sodium deoxycholate, 1%, 25° C., 4 months) | Re-solubility after storage (by naked eye) ([1]; Sucrose 9.6%, Sodium deoxycholate, 2%, 25° C., 2 months) | Re-solubility after storage (by naked eye) ([1]; Sucrose 9.6%, Sodium deoxycholate, 2%, 25° C., 4 months) | Re-solubility after storage (by naked eye) ([2]; Histidine, 2%, 50° C., 2 weeks) | Re-solubility after storage (by naked eye) ([2]; Histidine, 2%, 50° C., 3 days) | Re-solubility after storage (by naked eye) ([2]; Pluronic F68, 0.1%, 25° C., 1 month) | Re-solubility after storage (by naked eye) ([2]; Pluronic F68, 1%, 25° C., 1 month) | Re-solubility after storage (by naked eye) ([2]; Sodium deoxycholate, 0.1%, 25° C., 1 month) | Re-solubility after storage (by naked eye) ([2]; Sodium deoxycholate, 1%, 25° C., 1 month) | Re-solubility after storage (by naked eye) ([2]; Sodium deoxycholate, 1%, 25° C., 4 month) | Re-solubility after storage (by naked eye) ([2]; Sodium deoxycholate, 1%, 50° C., 2 weeks) | Re-solubility after storage (by naked eye) ([2]; Sodium deoxycholate, 1%, 50° C., 3 days) | Re-solubility after storage (by naked eye) ([2]; no additive, 25° C., 1 month)
+ (not dissolved (or deposited)): Re-solubility after storage (by naked eye) ([1]; Sucrose 1.1%, Histidine, 4%, 50° C., 2 weeks) | Re-solubility after storage (by naked eye) ([1]; Sucrose 4.8%, Sodium deoxycholate, 0.2%, 25° C., 2 months) | Re-solubility after storage (by naked eye) ([1]; Sucrose 7.9%, Histidine, 0.5%, 50° C., 2 weeks) | Re-solubility after storage (by naked eye) ([1]; Sucrose 9.6%, Sodium deoxycholate, 0.2%, 25° C., 2 months) | Re-solubility after storage (by naked eye) ([1]; Sucrose 19.2%, Sodium deoxycholate, 0.1%, 25° C., 2 months) | Re-solubility after storage (by naked eye) ([1]; Sucrose 19.2%, Sodium deoxycholate, 0.2%, 25° C., 2 months) | Re-solubility after storage (by naked eye) ([1]; Sucrose 19.2%, Sodium deoxycholate, 0.5%, 25° C., 2 months) | Re-solubility after storage (by naked eye) ([1]; Sucrose 19.2%, Sodium deoxycholate, 1%, 25° C., 2 months) | Re-solubility after storage (by naked eye) ([1]; Sucrose 19.2%, Sodium deoxycholate, 2%, 25° C., 2 months) | Re-solubility after storage (by naked eye) ([2]; Arginine, 0.1%, 50° C., 3 days) | Re-solubility after storage (by naked eye) ([2]; Glycerol, 1%, 25° C., 1 month) | Re-solubility after storage (by naked eye) ([2]; Glycine, 0.1%, 50° C., 3 days) | Re-solubility after storage (by naked eye) ([2]; Glycine, 1%, 50° C., 3 days) | Re-solubility after storage (by naked eye) ([2]; Pluronic F68, 0.1%, 25° C., 4 month) | Re-solubility after storage (by naked eye) ([2]; Pluronic F68, 1%, 25° C., 4 month) | Re-solubility after storage (by naked eye) ([2]; Propylene glycol, 1%, 25° C., 1 month) | Re-solubility after storage (by naked eye) ([2]; Sodium deoxycholate, 0.1%, 25° C., 4 month) | Re-solubility after storage (by naked eye) ([2]; no additive, 25° C., 4 month) | Re-solubility after storage (by naked eye) ([2]; no additive, 50° C., 3 days)

Reference: patent US6417167B1, “Lyophilized compositions containing shingoglycolipid and process for preparing them” (Kirin Beer Kabushiki Kaisha, priority 1997, dated 2002)
